Measurements as given in ChEMBL document CHEMBL1201862, “PubChem BioAssay data set” (2004).
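Growth conditions: 96-well plates. Treatment: test compound, 48 hours, 5 concentrations. Analysis: linear interpolation between bracketing concentrations; unreached endpoints set to highest concentration. At the GI50, growth is halved.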 Activity calls are given as the source filed them. No stated cut-off is given here; in the data, active = GI50 up to about 1.1 µM and inactive = higher.

Tests used:
Assay in all cases: growth of human tumour cells (NCI), 48 h
[1] = system: 786-0
[2] = system: A498
[3] = system: A549
[4] = system: ACHN
[5] = system: BT-549
[6] = system: CAKI-1
[7] = system: CCRF-CEM
[8] = system: COLO 205
[9] = system: DU-145
[10] = system: EKVX
[11] = system: HCC 2998
[12] = system: HCT-116
[13] = system: HCT-15
[14] = system: HOP-92
[15] = system: HT-29
[16] = system: Hs-578T
[17] = system: IGROV-1
[18] = system: K562
[19] = system: KM12
[20] = system: LOX IMVI
[21] = system: M14
[22] = system: MCF7
[23] = system: MDA-MB-231
[24] = system: MDA-MB-435
[25] = system: MDA-N
[26] = system: Malme-3M
[27] = system: NCI-H226
[28] = system: NCI-H23
[29] = system: NCI-H460
[30] = system: NCI-H522
[31] = system: NCI/ADR-RES
[32] = system: OVCAR-4
[33] = system: OVCAR-5
[34] = system: OVCAR-8
[35] = system: PC-3
[36] = system: RXF 393
[37] = system: SF-268
[38] = system: SF-295
[39] = system: SF-539
[40] = system: SK-MEL-28
[41] = system: SK-MEL-2
[42] = system: SK-MEL-5
[43] = system: SK-OV-3
[44] = system: SN12C
[45] = system: SNB-19
[46] = system: SNB-75
[47] = system: SR
[48] = system: SW-620
[49] = system: T47D
[50] = system: TK-10
[51] = system: U-251
[52] = system: UACC-257
[53] = system: UACC-62
[54] = system: UO-31
[55] = system: HOP-62
[56] = system: MOLT-4
[57] = system: OVCAR-3
[58] = system: RPMI-8226

C/C(=N\N=C(\N)SB(F)F)c1ccc2ccccc2c1
GI50 [1]: > 100 µM (inactive)
GI50 [2]: > 100 µM (inactive)
GI50 [3]: > 100 µM (inactive)
GI50 [4]: > 100 µM (inactive)
GI50 [5]: > 100 µM (inactive)
GI50 [6]: > 100 µM (inactive)
GI50 [7]: 4.37 µM (inactive)
GI50 [8]: > 100 µM (inactive)
GI50 [9]: > 100 µM (inactive)
GI50 [10]: > 100 µM (inactive)
GI50 [11]: > 100 µM (inactive)
GI50 [12]: > 100 µM (inactive)
GI50 [13]: 95.5 µM
GI50 [14]: > 100 µM (inactive)
GI50 [15]: > 100 µM (inactive)
GI50 [16]: > 100 µM (inactive)
GI50 [17]: > 100 µM (inactive)
GI50 [18]: > 100 µM (inactive)
GI50 [19]: > 100 µM (inactive)
GI50 [20]: 56.4 µM (inactive)
GI50 [21]: > 100 µM (inactive)
GI50 [22]: 87.7 µM (inactive)
GI50 [23]: > 100 µM (inactive)
GI50 [24]: > 100 µM (inactive)
GI50 [25]: > 100 µM (inactive)
GI50 [26]: > 100 µM (inactive)
GI50 [27]: > 100 µM (inactive)
GI50 [28]: > 100 µM (inactive)
GI50 [29]: > 100 µM (inactive)
GI50 [30]: 25.6 µM (inactive)
GI50 [31]: > 100 µM (inactive)
GI50 [32]: > 100 µM (inactive)
GI50 [33]: > 100 µM (inactive)
GI50 [34]: > 100 µM (inactive)
GI50 [35]: > 100 µM (inactive)
GI50 [36]: 62.8 µM (inactive)
GI50 [37]: 86.5 µM (inactive)
GI50 [38]: > 100 µM (inactive)
GI50 [39]: > 100 µM (inactive)
GI50 [40]: > 100 µM (inactive)
GI50 [41]: > 100 µM (inactive)
GI50 [42]: > 100 µM (inactive)
GI50 [43]: > 100 µM (inactive)
GI50 [44]: > 100 µM (inactive)
GI50 [45]: > 100 µM (inactive)
GI50 [46]: > 100 µM (inactive)
GI50 [47]: 54.5 µM (inactive)
GI50 [48]: 71.8 µM (inactive)
GI50 [49]: > 100 µM (inactive)
GI50 [50]: > 100 µM (inactive)
GI50 [51]: > 100 µM (inactive)
GI50 [52]: > 100 µM (inactive)
GI50 [53]: > 100 µM (inactive)
GI50 [54]: > 100 µM (inactive)

CC(NC(NC(C)C12CC3CC(CC(C3)C1)C2)=C(C(Cl)=C(Cl)Cl)[N+](=O)[O-])C12CC3CC(CC(C3)C1)C2 (configuration not stated)
GI50 [1]: 13 µM (inactive)
GI50 [2]: 36.1 µM (inactive)
GI50 [3]: 6.31 µM (inactive)
GI50 [4]: 28.2 µM (inactive)
GI50 [5]: 24 µM (inactive)
GI50 [6]: 16.9 µM (inactive)
GI50 [7]: 0.923 µM (active)
GI50 [8]: 8.51 µM (inactive)
GI50 [9]: 45 µM (inactive)
GI50 [10]: 11.3 µM (inactive)
GI50 [11]: 23.4 µM (inactive)
GI50 [12]: 9.04 µM (inactive)
GI50 [13]: 18.7 µM
GI50 [55]: 32.7 µM (inactive)
GI50 [14]: 3.58 µM (inactive)
GI50 [15]: 4.62 µM (inactive)
GI50 [16]: 3.83 µM (inactive)
GI50 [17]: 8.02 µM (inactive)
GI50 [18]: 9.08 µM (inactive)
GI50 [19]: 47.3 µM (inactive)
GI50 [20]: 9.95 µM (inactive)
GI50 [21]: 16.4 µM (inactive)
GI50 [22]: 8.36 µM (inactive)
GI50 [23]: 4.5 µM (inactive)
GI50 [24]: 27.2 µM (inactive)
GI50 [25]: 22.7 µM (inactive)
GI50 [56]: 19.5 µM (inactive)
GI50 [26]: 26.7 µM (inactive)
GI50 [27]: > 26.2 µM (inactive)
GI50 [28]: 7.96 µM (inactive)
GI50 [29]: 4.36 µM (inactive)
GI50 [30]: 7.11 µM (inactive)
GI50 [31]: 12 µM (inactive)
GI50 [57]: 9.71 µM (inactive)
GI50 [32]: 8.3 µM (inactive)
GI50 [33]: 32.1 µM (inactive)
GI50 [34]: 2.77 µM (inactive)
GI50 [35]: 8.3 µM (inactive)
GI50 [58]: > 36.7 µM (inactive)
GI50 [36]: 13 µM (inactive)
GI50 [37]: 21.8 µM (inactive)
GI50 [38]: 24.9 µM (inactive)
GI50 [39]: 20.9 µM (inactive)
GI50 [40]: 26.4 µM (inactive)
GI50 [41]: 15 µM (inactive)
GI50 [42]: 13.2 µM (inactive)
GI50 [43]: 71.1 µM (inactive)
GI50 [44]: 7.59 µM (inactive)
GI50 [45]: 30.2 µM (inactive)
GI50 [46]: 43.4 µM (inactive)
GI50 [47]: 3.9 µM (inactive)
GI50 [48]: 17.6 µM (inactive)
GI50 [49]: 20.4 µM (inactive)
GI50 [50]: 33.3 µM (inactive)
GI50 [51]: 3.38 µM (inactive)
GI50 [52]: 14.5 µM (inactive)
GI50 [53]: 30 µM (inactive)
GI50 [54]: 31.9 µM (inactive)
